Read-outs that look alike come from different tables or passages of the source.
Tests used:
[1] = test system: KMS12-BM (NIK WT) multiple myeloma cells; test: Antiproliferative activity on KMS12-BM multiple myeloma cells (CellTiter-Glo, 96 hr), Biological Assay C; format: cell-based, human; details: averaged values, read-out: KMS-12 Proliferation inhibition (IC50 (nM))
How it was run: (§1)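 JJN-3 and KMS12-BM cells in RPMI 1640 with 10% FCS were plated at 15000–20000 cells/well and treated 96 h with a 9-point 1:3 dilution series (0.3% DMSO). Viability read by CellTiter-Glo luminescence, blank (time-zero cells) subtracted, expressed as % of untreated control; duplicate wells.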

[2] = test system: P-IKKα levels in L363 (NIK translocated multiple myeloma) cells; test: Effect of compounds on P-IKKα levels in L363 cells (Mesoscale sandwich immuno-assay), Biological Assay B; format: cell-based, human; details: 2 hr treatment, averaged values, read-out: Inhibition of pIKKα_L-363 (IC50 (nM))
Procedure: Effect of Compounds on P-IKKα Levels in L363 (NIK Translocated Multiple Myeloma) Cells
All compounds tested were dissolved in DMSO and further dilutions were made in culture medium. Final DMSO concentration was 1% (v/v) in cell assays. The human L363 cells (ATCC) were cultured in RPMI 1640 medium supplemented with GlutaMax and 10% fetal calf serum (PAA). Cells were routinely maintained at densities of 0.2×10^6 cells per ml-1×10^6 cells per ml at 37° C. in a humidified 5% CO2 atmosphere. Cells were passaged twice a week splitting back to obtain the low density. Cells were seeded in 96 well plates (Nunc 167008) at 2×10^6 per ml media in a volume of 75 μl per well plus 25 μl 1 μg/ml recombinant human B-cell activating factor (BAFF/BLyS/TNFSF13B). Seeded cells were incubated at 37° C. in a humidified 5% CO2 atmosphere for 24 hr. Drugs and/or solvents were added (20 μl) to a final volume of 120 μl. Following 2 hr treatment plates were removed from the incubator and cell lysis was achieved by the addition of 30 μl 5× lysis buffer followed by shaking on a plate shaker at 4° C. for 10 min. At the end of this incubation lysed cells were centrifuged at 800×g for 20 min at 4° C. and the lysate was assessed for P-IKKα levels by sandwich immuno-assay carried out in anti-rabbit antibody coated Mesoscale plates. Within an experiment, the results for each treatment were the mean of 2 replicate wells. For initial screening purposes, compounds were tested using an 8 point dilution curve (serial 1:3 dilutions). For each experiment, controls (containing MG132 and BAFF but no test drug) and a blank incubation (containing MG132 and BAFF and 10 μM ADS125117, a test concentration known to give full inhibition) were run in parallel. The blank incubation value was subtracted from all control and sample values. To determine the IC50 a sigmoidal curve was fitted to the plot of % inhibition of control P-IKKα levels versus Log10 compound concentration.
Note: Compounds 237 and 238 were tested at a maximum top concentration of 823 nM.

[3] = test system: JJN-3 (NIK translocated) multiple myeloma cells; test: Antiproliferative activity on JJN-3 multiple myeloma cells (CellTiter-Glo, 96 hr), Biological Assay C; format: cell-based, human; details: JJN-3 (NIK translocated) cells, averaged values, read-out: JJN-3 Proliferation inhibition (IC50 (nM))
How it was run: as §1

[4] = molecular target: recombinant human NF-kappaB-inducing kinase (NIK/MAP3K14) (Homo sapiens, UniProt Q99558); test: Inhibition of auto-phosphorylation of recombinant human NIK/MAP3K14 activity (AlphaScreen), Biological Assay A; format: biochemical; details: averaged values over all measurements on all batches
recombinant human NF-kappaB-inducing kinase (NIK/MAP3K14), sequence (Q99558 whole entry): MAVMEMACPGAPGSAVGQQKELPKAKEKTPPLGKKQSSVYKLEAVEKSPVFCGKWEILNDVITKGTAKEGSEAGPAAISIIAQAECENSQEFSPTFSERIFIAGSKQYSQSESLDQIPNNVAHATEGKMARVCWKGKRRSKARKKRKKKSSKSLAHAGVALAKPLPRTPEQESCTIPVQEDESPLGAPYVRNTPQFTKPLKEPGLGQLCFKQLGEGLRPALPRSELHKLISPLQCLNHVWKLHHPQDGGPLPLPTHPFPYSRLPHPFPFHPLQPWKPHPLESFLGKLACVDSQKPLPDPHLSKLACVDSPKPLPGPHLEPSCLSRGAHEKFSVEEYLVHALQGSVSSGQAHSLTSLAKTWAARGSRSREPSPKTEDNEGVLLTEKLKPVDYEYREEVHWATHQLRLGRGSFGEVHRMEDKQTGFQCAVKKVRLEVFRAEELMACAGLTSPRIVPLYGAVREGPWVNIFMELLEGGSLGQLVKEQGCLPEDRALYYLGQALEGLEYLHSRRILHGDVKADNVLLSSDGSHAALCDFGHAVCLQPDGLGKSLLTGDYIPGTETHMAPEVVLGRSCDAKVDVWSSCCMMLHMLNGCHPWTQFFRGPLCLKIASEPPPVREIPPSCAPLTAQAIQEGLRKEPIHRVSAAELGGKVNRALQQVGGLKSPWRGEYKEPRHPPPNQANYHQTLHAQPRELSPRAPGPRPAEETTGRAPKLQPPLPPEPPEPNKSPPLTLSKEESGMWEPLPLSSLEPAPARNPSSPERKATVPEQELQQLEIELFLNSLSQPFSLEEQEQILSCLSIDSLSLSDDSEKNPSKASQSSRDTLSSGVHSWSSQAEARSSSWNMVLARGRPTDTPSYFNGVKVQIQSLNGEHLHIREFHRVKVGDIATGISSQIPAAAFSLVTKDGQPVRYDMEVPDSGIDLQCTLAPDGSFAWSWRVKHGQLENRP
How it was run: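 GST-tagged enzyme (0.2 nM) incubated with compound and 25 μM ATP in 50 mM Tris pH 7.5, 5 mM MgCl2, 1 mM EGTA, 1 mM DTT, 0.1 mM Na3VO4, 1% DMSO, 1 h at 25 °C. Stopped with anti-phospho-IKK Ser176/180 antibody; AlphaScreen bead read, blank-subtracted, IC50 from sigmoidal fit.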

Cc1ccc(C(=O)NC2CCN(C)C2)cc1Nc1nccc(-c2cc(C#N)c3c(c2)[C@@](C)(CO)CN3)n1 (mixture of isomers) [Compound 163]
IC50 ([1]; Homo sapiens, KMS-12-BM, 96 h): > 10000 nM
IC50 ([2]; Homo sapiens, L-363, 2 h): 33.1 nM
melting point: 150 °C
IC50 ([3]; Homo sapiens, JJN-3, 96 h): 437 nM
IC50 [4]: 3.5 nM

Cc1cc(F)c(C(=O)NC2CCN(C)C2)cc1Nc1nccc(-c2cc(C#N)c3c(c2)[C@@](C)(CO)CN3)n1 (single isomer, unassigned) [Compound 166]
IC50 ([1]; Homo sapiens, KMS-12-BM, 96 h): > 10000 nM
IC50 ([2]; Homo sapiens, L-363, 2 h): 18.6 nM
melting point: 116 °C
IC50 ([3]; Homo sapiens, JJN-3, 96 h): 955 nM
IC50 [4]: 8.9 nM

Cc1cc(F)c(C(=O)NC2CCN(C)C2)cc1Nc1nccc(-c2cc(C#N)c3c(c2)[C@@](C)(CO)CN3)n1 (single isomer, unassigned) [Compound 167]
IC50 [1]: 6170 nM
IC50 [2]: 19.1 nM
melting point: 239 °C
IC50 [3]: 562 nM
IC50 [4]: 7.6 nM

Cc1cc(F)c(C(=O)NC2CCOC2)cc1Nc1nccc(-c2cc(C#N)c3c(c2)[C@@](C)(CO)CN3)n1 (single isomer, unassigned) [Compound 168]
IC50 ([1]; Homo sapiens, KMS-12-BM, 96 h): > 10000 nM
IC50 ([2]; Homo sapiens, L-363, 2 h): 14.5 nM
melting point: 246 °C
IC50 ([3]; Homo sapiens, JJN-3, 96 h): ~1410 nM
IC50 [4]: 10.7 nM

Cc1cc(F)c(C(=O)NC2CCOC2)cc1Nc1nccc(-c2cc(C#N)c3c(c2)[C@@](C)(CO)CN3)n1 (single isomer, unassigned) [Compound 169]
IC50 [1]: > 10000 nM
IC50 [2]: 8.3 nM
melting point: 256 °C
IC50 [3]: ~1000 nM
IC50 [4]: 8.7 nM

Cc1cc(C2CCCN(C)C2)c(C#N)cc1Nc1nccc(-c2cc(C#N)c3c(c2)[C@@](C)(CO)CN3)n1 (single isomer, unassigned) [Compound 178]
IC50 ([1]; Homo sapiens, KMS-12-BM, 96 h): ~891 nM
IC50 ([2]; Homo sapiens, L-363, 2 h): 2.6 nM
melting point: 230 °C
IC50 ([3]; Homo sapiens, JJN-3, 96 h): 42 nM
IC50 [4]: 2 nM

Cc1ccc(C#N)cc1Nc1nccc(-c2cc(C#N)c3c(c2)[C@@](C)(CO)CN3)n1 [Compound 1]
IC50 [1]: 5190 nM
IC50 [2]: 2.2 nM
melting point: 222 °C
IC50 [3]: 85 nM
IC50 [4]: 1.8 nM

C[C@]1(CO)CNc2c(C#N)cc(-c3ccnc(Nc4cc(C#N)ccc4OCCO)n3)cc21 [Compound 8]
IC50 ([1]; Homo sapiens, KMS-12-BM, 96 h): > 10000 nM
IC50 ([2]; Homo sapiens, L-363, 2 h): 32.4 nM
melting point: 184 °C
IC50 ([3]; Homo sapiens, JJN-3, 96 h): 87 nM
IC50 [4]: 1.3 nM

C[C@]1(CO)CNc2c(C#N)cc(-c3ccnc(Nc4cc(C#N)ccc4OCC4CC4)n3)cc21 [Compound 13]
IC50 ([1]; Homo sapiens, KMS-12-BM, 96 h): > 10000 nM
IC50 ([2]; Homo sapiens, L-363, 2 h): 30.9 nM
melting point: 194 °C
IC50 ([3]; Homo sapiens, JJN-3, 96 h): 146 nM
IC50 [4]: 9.2 nM

CC1(COc2ccc(C#N)cc2Nc2nccc(-c3cc(C#N)c4c(c3)[C@@](C)(CO)CN4)n2)COC1 [Compound 14]
IC50 ([1]; Homo sapiens, KMS-12-BM, 96 h): > 10000 nM
IC50 ([2]; Homo sapiens, L-363, 2 h): 21.4 nM
melting point: 162 °C
IC50 ([3]; Homo sapiens, JJN-3, 96 h): 170 nM
IC50 [4]: 5.5 nM

CCCCc1ccc(C#N)cc1Nc1nccc(-c2cc(C#N)c3c(c2)[C@@](C)(CO)CN3)n1 [Compound 15]
IC50 ([1]; Homo sapiens, KMS-12-BM, 96 h): > 10000 nM
IC50 ([2]; Homo sapiens, L-363, 2 h): ~269 nM
melting point: 110 °C
IC50 ([3]; Homo sapiens, JJN-3, 96 h): 117 nM
IC50 [4]: 11 nM

CC(C)Oc1ccc(C#N)cc1Nc1nccc(-c2cc(C#N)c3c(c2)[C@@](C)(CO)CN3)n1 [Compound 16]
IC50 ([1]; Homo sapiens, KMS-12-BM, 96 h): 550 nM
IC50 ([2]; Homo sapiens, L-363, 2 h): 15.5 nM
melting point: 162 °C
IC50 ([3]; Homo sapiens, JJN-3, 96 h): 258 nM
IC50 [4]: 15.5 nM

Cc1cc(S(C)(=O)=O)ccc1Nc1nccc(-c2cc(C#N)c3c(c2)[C@@](C)(CO)CN3)n1 [Compound 17]
IC50 ([1]; Homo sapiens, KMS-12-BM, 96 h): 479 nM
IC50 ([2]; Homo sapiens, L-363, 2 h): 6.8 nM
melting point: 148 °C
IC50 ([3]; Homo sapiens, JJN-3, 96 h): 56 nM
IC50 [4]: 1.1 nM

CC(C)Oc1cc(P(C)(C)=O)ccc1Nc1nccc(-c2cc(C#N)c3c(c2)[C@@](C)(CO)CN3)n1 [Compound 18]
IC50 ([1]; Homo sapiens, KMS-12-BM, 96 h): ~8130 nM
IC50 ([2]; Homo sapiens, L-363, 2 h): 20 nM
melting point: 263 °C
IC50 ([3]; Homo sapiens, JJN-3, 96 h): 407 nM
IC50 [4]: 2.6 nM

C[C@]1(CO)CNc2c(C#N)cc(-c3ccnc(Nc4cc(C#N)c(C5CCOCC5)cc4OCC4CC4)n3)cc21 [Compound 19]
IC50 ([1]; Homo sapiens, KMS-12-BM, 96 h): > 10000 nM
IC50 ([2]; Homo sapiens, L-363, 2 h): 38.9 nM
melting point: 284 °C
IC50 ([3]; Homo sapiens, JJN-3, 96 h): 1950 nM
IC50 [4]: 27.5 nM

— patent US11180487B2, “Substituted cyanoindoline derivatives as NIK inhibitors” (Janssen Pharmaceutica NV, priority 2016, dated 2021)
